From patent publication US20240116910A1, “Heterocycles as WIP1 Inhibitors” (PMV Pharmaceuticals, Inc., priority 2022, published 2024) come the findings set out here.

pIC50: −log10 of the molar value.

The experiment deals with recombinant His-tag Wip1(2-420) protein (amino acids #2-420) (Homo sapiens (Human), UniProt O15297). Put plainly: Wip1(2-420) phosphatase enzyme FDP assay. The format is biochemical. The settings on record: fluorescein diphosphate (FDP) substrate, RT 2 hours, fluorescence Ex485/Em535; read-out: WIP1 (Truncated 2-420) FDP Assay: IC50. On the procedure: The Human Wip1 (2-420, aa 2-420) or Wip1 full length (aa 1-605) DNA sequence was codon optimized and synthesized by Genscript for insect cell expression. The open reading frame of Wip1(2-420) with a N-terminal-His6 affinity tag followed by a TEV cleavage site was subcloned sites into the pFastBac1 expression vector. The recombinant bacmid DNA was transfected in Sf9 insect cells for baculovirus production. After 72 hours infection, the Sf9 cells were harvested by centrifugation and resuspended in lysis buffer containing 50 mM Tris/HCl, pH 8.0, 500 mM NaCl, 20% glycerol, Benzonase 0.5% CHAPS and Roche cOmplete™ EDTA free protease inhibitors. Cells were disrupted with microfluidizer and the debris was removed by centrifugation at 185,000 g for 1 hour. The supernatant was subjected to HisTrap FF for affinity purification. Proteins were eluted with a linear gradient of 0-500 mM imidazole in HisTrap buffer containing 50 mM Tris/HCl, pH 8.0, 500 mM NaCl and 20% glycerol, 0.05% CHAPS. The eluted protein was dialyzed against dialysis buffer (20 mM MES, 100 mM NaCl, 20% glycerol, 0.5 mM TCEP, 0.05% CHAPS) followed purification via HiTrap SP HP column. The protein was eluted with a gradient of 100 mM-2 M NaCl in dialysis buffer. His6-[…] was finally concentrated and loaded onto a size-exclusion column (NiLoad 16/600 Superdex 200 pg, GE Healthcare) pre-equilibrated with 50 mM MOPS (pH 7.5), 200 mM NaCl, 20% glycerol, 1 mM TCEP, 0.05% CHAPS and 0.1 mM EGTA. The peak fractions containing purified Nis6-Wip1(2-420) were pooled and concentrated to 1.0 mg/mL and flash frozen at −80° C.
recombinant His-tag Wip1(2-420) protein (amino acids #2-420), sequence (O15297 2-420): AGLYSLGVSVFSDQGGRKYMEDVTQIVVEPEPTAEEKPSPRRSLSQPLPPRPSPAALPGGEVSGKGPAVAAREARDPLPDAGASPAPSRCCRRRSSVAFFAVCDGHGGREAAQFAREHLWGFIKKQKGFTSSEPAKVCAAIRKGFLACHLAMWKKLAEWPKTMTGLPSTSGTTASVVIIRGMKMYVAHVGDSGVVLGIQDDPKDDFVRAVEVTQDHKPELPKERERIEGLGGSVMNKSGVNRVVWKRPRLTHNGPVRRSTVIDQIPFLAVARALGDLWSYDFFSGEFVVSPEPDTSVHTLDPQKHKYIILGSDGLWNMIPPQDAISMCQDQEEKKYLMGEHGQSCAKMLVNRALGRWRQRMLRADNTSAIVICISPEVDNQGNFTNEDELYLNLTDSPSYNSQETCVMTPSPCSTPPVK
Wip1 Length and Wip1(2-420) Phosphatase Enzyme FDP Assays.
Test compounds (252 mM stock in DMSO) were diluted 3 folds in series in DMSO and 1.2 μl per well were added into 384-well polypropylene black plates (Nunc). Twelve μl per well of Assay Buffer (100 mM NaCl, 50 mM MOPS, pH 7.5, 0.8 mM CHAPS, 0.1 mM EGTA, 30 mM MgCl2, 0.3 mM TCEP, 0.2 mg/mL BSA) was added followed by […] per well of 50.4 nM recombinant His-tag Wip1 full length protein (amino acids #1-605) or recombinant His-tag Wip1(2-420) protein (amino acids #2-420) in Assay Buffer and the plate was incubated at RT (22° C.) for 5 min. Ten mM of fluorescein diphosphate (FDP) in DMSO was diluted to […] in Assay Buffer and […] per well was added to the plate and incubated at RT (22° C.) for 2 hours. […] per well of 64.1 mM EDTA in water were added to stop the enzyme reaction. The plate was centrifuged at 1,200 rpm (Eppendorf 5810R Plate centrifuge) for 1 minute and fluorescence intensity (Ex485/Em535) was measured on Perkin Elmer Victor Reader. EC50 values were calculated using either Prism (GraphPad) or ActivityBase software (IDBS), The IC50 results are provided in Table M.
A word on the pIC50: it is −log10 of the IC50, conventionally taken in molar units. As to `Cc1ncc(Cl)cc1NC(C)(C)c1ccc(C(=O)N[C@@H](CC2CCCC2)C(=O)N[C@H]2C[C@H](F)C2)s1` [Compound 275, (2S)-2-[(5-{2-[(5-chloro-2-methylpyridin-3-yl)amino]propan-2-yl}thiophen-2-yl)formamido]-3-cyclopentyl-N-[(1r,3r)-3-fluorocyclobutyl]propanamide], the pIC50 is 8.00. Next, `Cc1ncc(Cl)cc1N[C@@H](Cc1ccccc1)c1ccc(C(=O)N[C@@H](CC2CCCC2)C(=O)NC23CC(C2)C3)s1` [Compound 216, (2S)-N-{bicyclo[1.1.1]pentan-1-yl}-2-({5-[(1S)-1-[(5-chloro-2-methylpyridin-3-yl)amino]-2-phenylethyl]thiophen-2-yl}formamido)-3-cyclopentylpropanamide]: 7.92; `CC(Nc1cc(Cl)cnc1C(N)=O)c1ccc(C(=O)N[C@@H](CC2CCCC2)C(=O)NC23CC(C2)C3)s1` (stereo partly drawn) [Compound 172, 3-{[1-(5-{[(1S)-1-({bicyclo[1.1.1]pentan-1-yl}carbamoyl)-2-cyclopentylethyl]carbamoyl}thiophen-2-yl)ethyl]amino}-5-chloropyridine-2-carboxamide]: 8.00; `C[C@H](c1ccc(C(=O)N[C@@H](CC2CCCC2)C(=O)NC2CC2)s1)N(C)c1cncc(Cl)c1` [Compound 90, (2S)-2-({5-[(1R)-1-[(5-chloropyridin-3-yl)(methyl)amino]ethyl]thiophen-2-yl}formamido)-3-cyclopentyl-N-cyclopropylpropanamide]: 7.96. Next, `C[C@@H](Nc1cc(Cl)cnc1C(F)(F)F)c1ccc(C(=O)N[C@@H](CC2CCCC2)C(=O)NC2CC2)s1` [Compound 190, (2S)-2-({5-[(1R)-1-{[5-chloro-2-(trifluoromethyl)pyridin-3-yl]amino}ethyl]thiophen-2-yl}formamido)-3-cyclopentyl-N-cyclopropylpropanamide]: 6.65; `C[C@H](Nc1cc(Cl)cnc1C(=O)O)c1ccc(C(=O)N[C@@H](CC2CCCC2)C(=O)NC2CC2)s1` [Compound 269, 5-chloro-3-{[(1S)-1-(5-{[(1S)-2-cyclopentyl-1-(cyclopropylcarbamoyl)ethyl]carbamoyl}thiophen-2-yl)ethyl]amino}pyridine-2-carboxylic acid]: 7.85; `COc1ncc(Cl)cc1N[C@H](C)c1ccc(C(=O)N[C@@H](CC2CCCC2)C(=O)NC2CC2)s1` [Compound 35, (2S)-2-({5-[(1R)-1-[(5-chloro-2-methoxypyridin-3-yl)amino]ethyl]thiophen-2-yl}formamido)-3-cyclopentyl-N-cyclopropylpropanamide]: 6.52. `Cc1ncc(Cl)cc1N[C@@H](C)c1ccc(C(=O)NC(CC2CCCC2)C(=O)Nc2c[nH]nn2)s1` (stereo partly drawn) [Compound 134, 2-({5-[(1S)-1-[(5-chloro-2-methylpyridin-3-yl)amino]ethyl]thiophen-2-yl}formamido)-3-cyclopentyl-N-(1H-1,2,3-triazol-4-yl)propanamide]: the pIC50 is 8.40. In the case of `Cc1ncc(Cl)cc1N[C@@H](C)c1ccc(C(=O)N[C@@H](CC2CCCC2)C(=O)Nc2ccnc(C(N)=O)c2)s1` [Compound 135, 4-[(2S)-2-({5-[(1S)-1-[(5-chloro-2-methylpyridin-3-yl)amino]ethyl]thiophen-2-yl}formamido)-3-cyclopentylpropanamido]pyridine-2-carboxamide] it was 8.30.

With `COc1ncc(Cl)cc1N[C@H](C)c1ccc(C(=O)N[C@@H](CC2CCCC2)C(=O)NC23CC(C#N)(C2)C3)s1` [Compound 83, (2S)-2-({5-[(1R)-1-[(5-chloro-2-methoxypyridin-3-yl)amino]ethyl]thiophen-2-yl}formamido)-N-{3-cyanobicyclo[1.1.1]pentan-1-yl}-3-cyclopentylpropanamide], the pIC50 is 6.32. Next, `C[C@@H](Nc1cc(Cl)cnc1-c1cccnc1)c1ccc(C(=O)N[C@@H](CC2CCCC2)C(=O)NC2CC2)s1` [Compound 233, (2S)-2-({5-[(1R)-1-({5-chloro-[2,3′-bipyridin]-3-yl}amino)ethyl]thiophen-2-yl}formamido)-3-cyclopentyl-N-cyclopropylpropanamide]: 6.53; `Cc1ncc(Cl)cc1N[C@@H](C)c1ccc(C(=O)N[C@@H](CC2CCCC2)C(=O)N[C@H]2C[C@H](C(=O)O)C2)s1` [Compound 95, (1r,3r)-3-[(2S)-2-({5-[(1S)-1-[(5-chloro-2-methylpyridin-3-yl)amino]ethyl]thiophen-2-yl}formamido)-3-cyclopentylpropanamido]cyclobutane-1-carboxylic acid]: 8.00; `Cc1ncc(Cl)cc1N[C@@H](C)c1ccc(C(=O)N[C@@H](C(=O)NC2CC2)C(C)(C)C)s1` [Compound 234, (2R)-2-({5-[(1S)-1-[(5-chloro-2-methylpyridin-3-yl)amino]ethyl]thiophen-2-yl}formamido)-N-cyclopropyl-3,3-dimethylbutanamide]: less than 5.00. In the case of `Cc1ncc(Cl)cc1N[C@@H](C)c1ccc(C(=O)N[C@@H](CC2CCCC2)C(=O)Nc2ccnc(O)c2)s1` [Compound 139, (2S)-2-({5-[(1S)-1-[(5-chloro-2-methylpyridin-3-yl)amino]ethyl]thiophen-2-yl}formamido)-3-cyclopentyl-N-(2-hydroxypyridin-4-yl)propanamide] it was 8.30; in that of `C[C@@H](Nc1cc(Cl)cnc1-c1cccc(Cl)c1)c1ccc(C(=O)N[C@@H](CC2CCCC2)C(=O)NC2CC2)s1` [Compound 230, (2S)-2-({5-[(1R)-1-{[5-chloro-2-(3-chlorophenyl)pyridin-3-yl]amino}ethyl]thiophen-2-yl}formamido)-3-cyclopentyl-N-cyclopropylpropanamide], 6.71; in that of `Cc1ncc(Cl)cc1N[C@@H](C)c1ccc(C(=O)N[C@@H](C[C@H]2CCC3CC32)C(=O)NC23CC(C2)C3)s1` (stereo partly drawn) [Compound 244, (2S)-N-{bicyclo[1.1.1]pentan-1-yl}-3-[(2R)-bicyclo[3.1.0]hexan-2-yl]-2-({5-[(1S)-1-[(5-chloro-2-methylpyridin-3-yl)amino]ethyl]thiophen-2-yl}formamido)propanamide], 8.30.

On to `CC[C@@H](Nc1cc(Cl)cnc1C)c1ccc(C(=O)N[C@@H](CC2CCCC2)C(=O)NC23CC(C#N)(C2)C3)s1` [Compound 81, (2S)-2-({5-[(1R)-1-[(5-chloro-2-methylpyridin-3-yl)amino]propyl]thiophen-2-yl}formamido)-N-{3-cyanobicyclo[1.1.1]pentan-1-yl}-3-cyclopentylpropanamide], for which the pIC50 was 6.16. Next, `COc1ccc(-c2ncc(Cl)cc2N[C@H](C)c2ccc(C(=O)N[C@@H](CC3CCCC3)C(=O)NC3CC3)s2)cc1` [Compound 238, (2S)-2-({5-[(1R)-1-{[5-chloro-2-(4-methoxyphenyl)pyridin-3-yl]amino}ethyl]thiophen-2-yl}formamido)-3-cyclopentyl-N-cyclopropylpropanamide]: 6.73; `Cc1ncc(Cl)cc1NC(c1ccc(C(=O)N[C@@H](CC2CCCC2)C(=O)NC23CC(C2)C3)s1)C(F)(F)F` (stereo partly drawn) [Compound 225, (2S)-N-{bicyclo[1.1.1]pentan-1-yl}-2-[(5-{1-[(5-chloro-2-methylpyridin-3-yl)amino]-2,2,2-trifluoroethyl}thiophen-2-yl)formamido]-3-cyclopentylpropanamide]: 7.05; `COCCn1cc(NC(=O)[C@H](CC2CCCC2)NC(=O)c2ccc([C@H](C)Nc3cc(Cl)cnc3C)s2)cn1` [Compound 220, (2S)-2-({5-[(1S)-1-[(5-chloro-2-methylpyridin-3-yl)amino]ethyl]thiophen-2-yl}formamido)-3-cyclopentyl-N-[1-(2-methoxyethyl)-1H-pyrazol-4-yl]propanamide]: 8.22.
